Experimental data from publication PMC2807854, “Monoketone analogs of curcumin, a new class of Fanconi anemia pathway inhibitors” (Molecular Cancer, 2009).

What was measured:
309ATM KO cells = experiment: Survival assay (MTS), ATM KO mouse kidney cells; format: cell-based
Description: (§1) To test this possibility, we compared the effects of curcumin and EF24 in an ATM KO mouse kidney cell line (309ATM KO) and its isogenic, wild type counterpart (334ATM WT). As expected from ATM deficiency, 309ATM KO cells were more sensitive to ionizing irradiation than 334ATM WT (Additional File 1 - Fig. S3). We next treated these cell lines with various concentrations of EF24 and measured their survival after 72 hrs.
(§2) Figure 6 EF24 but not curcumin or DRB is more toxic to ATM-deficient mouse kidney cells than wild-type cells. A) 309ATM KO and 334ATM WT cells were treated with various concentrations of EF24. Cell viability was measured after 3 days by MTS assay. Each point represents the mean of 3 repeats. Error bars represent standard deviation. B) Similar experiment was performed using curcumin.
(§3) HSC72OT and HSC72OT+A cells were seeded at 5,000 per well in 96-well plates, and treated 24 hrs later with various concentrations of compounds or DMSO (1 μl in 100 μl medium). 309ATM KO and 334ATM WT cells were seeded at 7,000 per well and treated immediately. Cell survival was measured after 3 days using the CellTiter 96 AQueous One Solution Cell Proliferation Assay (Promega) following the recommendations from the manufacturer. All experiments were done in triplicate.
(§4) Fitted curves were determined from experimental data using IgorPro. The concentration of compound that induces 50% inhibition of the measured endpoint (i.e. FANCD2 ubiquitylation, Mre11 phosphorylation and cell survival) was then plotted on the fitted curve.

HeLa cells = experiment: Cell cycle profile of HeLa cells by FACS (PI DNA content); format: cell-based, human; conditions: 8 hrs
Procedure: As the activity of the FA pathway is cell cycle dependent, we monitored the effect of HU and EF24 on the cell cycle by FACS analysis.
Hela cells were treated for 8 hrs with 2mM HU and/or 2 mM EF24 as indicated, stained with PI and subjected to DNA content analysis by FA C S. (A) DNA content profiles are shown with M1: 2N DNA (G1 phase), M2: 2N<DNA<4N (S phase), M3: 4N DNA (G2/M phases). (B) Percentage of cells in each phase for each treatment. A representative experiment (from 2 repeats) is shown.
As the activity of the FA pathway is cell-cycle dependent, we tested wheth e r the effect of EF24 on HU-induced FANCD2-L correlated with differences in cell cycle p r ofile.
G2/M cells, consistent with the fact that HU efficiently blocks replication. On the other hand, cells treated with EF24 accumulated […]
Materials and Methods. For FACS analysis, cells were trypsinized, fixed in 70% EtOH and stained for 16 hrs at 4 °C in p r opidium iodide (PI) solution (40 µg/ml PI, 0.2 mg/ml RNAse A, 0.1% triton in PBS). For each point, 10000 gated cells were counted using a FACSCalibur flow cytometer (BD Biosciences). […]

334ATM WT cells = experiment: Survival assay (MTS), ATM wild-type mouse kidney cells; format: cell-based; conditions: Mus musculus, 72 hrs, read-out: cell survival IC50 WT
Description: as §1, §2, §3, §4

[1] = system: xCHK1-P (ATR target CHK1); experiment: CHK1 phosphorylation in DNA-stimulated Xenopus extracts (immunoblot); format: biochemical, Xenopus laevis; conditions: Fig. S4
Procedure: Since both proteins are the target of the DNA damage signaling and checkpoint kinases ATM and ATR [28, 44], we tested whether EF24 treatment affected the phosphorylation status of a classic ATR target, CHK1 [45].
EF24 inhibits phosphorylation of CHK1 (CHK1-P) in DNA-stimulated Xenopus extracts. The EF24 blot shown in Fig. 6B was reprobed with a phospho-CHK1 specific antibody. Inhibition of plasmid-induced xCHK1-P was apparent at 400 µM EF24 treatment. (*) A non-specific band was used as loading control. See legend of Fig. 7B for […]

hFANCD2-Ub in HeLa cells = experiment: hFANCD2 ubiquitylation assay in hydroxyurea-treated HeLa cells (immunoblot, densitometry); format: cell-based, human
Procedure: We next determined whether EF24 could inhibit hFANCD2-Ub in human cells. Curcumin was tested in parallel to assess whether activity difference observed in extracts are mirrored in cells. HeLa cells were co-treated with increasing concentrations of compounds and hydroxyurea (HU), a standard method to stimulate hFANCD2-Ub (Fig. 4A, lanes 1-2, 7-8, [30]).
(§5) A) Hydroxyurea-induced FANCD2-Ub in HeLa cells is inhibited by EF24 at lower concentrations than curcumin. hFANCD2-Ub was monitored by immunoblot and densitometry analysis to determine IC50. B) Hydroxyurea-induced hFANCD2 foci formation is inhibited by EF24. hFANCD2 foci were detected by immunofluorescence and the percentage of cells with more than 5 foci was determined for each treatment. Histograms represent the average of 3 experiments. Error bars represent standard deviation.
(§6) hFANCD2 ubiquitylation assay and immunofluorescence assays in HeLa cells have been described elsewhere.
as §4

[2] = system: xMRE11-P (MRE11 phosphorylation); experiment: MRE11 phosphorylation in activated Xenopus extracts (immunoblot); format: biochemical, Xenopus laevis
Procedure: A series of monoketone analogs of curcumin [18] was evaluated in Xenopus egg extracts where DNA substrate-induced xFANCD2-Ub is used as a readout of FA pathway performance. Phosphorylation of MRE11 (MRE11-P), a member of the MRN DNA damage repair pathway was monitored to assess the cross-specificity of the compounds. For each compound, IC50 values were determined from serial dilution experiments and densitometry analysis of immunoblots.
IC50 values were determined using immunoblots of plasmid-activated extracts treated with a range of concentrations for each compound (0, 10, 25, 60, 150, 400, 1000, 3000 μM). A representative experiment is shown (out of 3 repeats). B) Structure of curcumin and monoketone analogs. […] Activated extracts were treated with 1 mM each compound and phosphorylation of RPA32 and H2AX monitored by immunoblot.
Preparation of Xenopus laevis low-speed extracts and the FA pathway assay were described previously.
as §4

[3] = system: hFANCD2 foci in HeLa cells; experiment: Hydroxyurea-induced hFANCD2 foci in HeLa cells (immunofluorescence); format: cell-based; conditions: Homo sapiens, cells with more than 5 foci, read-out: inhibition of hFANCD2 foci formation IC50
Procedure: as §5
To confirm inhibition of the FA pathway using another readout, we monitored the effect of EF24 on HU-induced hFANCD2 foci in HeLa cells (Fig. 4B). IC50 values for inhibition of foci formation were in the same range as IC50 values for hFANCD2-Ub inhibition, an expected result since hFANCD2-Ub but not the unmodified hFANCD2 is competent to form foci.
as §6

IC50 (hFANCD2-Ub in HeLa cells; Homo sapiens, HeLa cells co-treated with hydroxyurea, read-out: hFANCD2-Ub inhibition IC50): 390 nM | IC50 [3]: 300 nM
SMILES: O=C1/C(=C/c2ccccc2F)CNC/C1=C\c1ccccc1F [EF24, 3,5-bis(2-flurobenzylidene)piperidin-4-one]
sensitivity of 309ATM KO cells compared to 334ATM WT cells (309ATM KO cells; 72 hrs survival, KO vs WT): twofold more sensitive | IC50 (309ATM KO cells; Mus musculus, 309ATM KO cells, 72 hrs, MTS, read-out: cell survival IC50 KO): 2600 nM | cell cycle profile, compound alone (HeLa cells; 2 mM EF24 as printed): accumulated | cell cycle profile, compound in combination with HU compared to untreated cells (HeLa cells; 2mM HU): no significant change in the cell cycle profile | IC50 (334ATM WT cells): 5800 nM | concentration at which inhibition of xCHK1-P was apparent [1]: 400 µM | fold more active than curcumin for hFANCD2-Ub inhibition (hFANCD2-Ub in HeLa cells; HeLa cells, hydroxyurea): 40 fold | effect on xMRE11 phosphorylation [2]: inhibits the phosphorylation of xMRE11
